Measurements: the NIST ThermoML archive (doi:10.1021/je700210n)
Numbers after ± are expanded uncertainties.

Assay: xn = mol fraction of the nth substance listed
Conditions: Liquid, determined from the liquid sample's weight and the volume of sample.

CC [ethane] + N#N
Conditions | mass density [kg/m3]
149.97 K, x2 = 0.0702 | 558.2 ± 10
169.87 K, x2 = 0.2041 | 544.8 ± 9.9
169.91 K, x2 = 0.114 | 537.5 ± 9.8
170 K, x2 = 0.036 | 525 ± 9.7
209.93 K, x2 = 0.0236 | 479.7 ± 8.7
210.04 K, x2 = 0.3352 | 482.6 ± 8.8
249.66 K, x2 = 0.0761 | 416.5 ± 7.6
249.98 K, x2 = 0.0518 | 414.7 ± 7.5
250.03 K, x2 = 0.1483 | 407.9 ± 7.5
269.91 K, x2 = 0.1969 | 350.5 ± 6.7
269.94 K, x2 = 0.0305 | 378.2 ± 6.9
269.97 K, x2 = 0.3581 | 284.6 ± 6.8
270 K, x2 = 0.2503 | 332.5 ± 7.3
270.01 K, x2 = 0.06 | 376.3 ± 6.8

N#N [nitrogen] + C
Conditions | mass density [kg/m3]
129.98 K, x1 = 0.2952 | 648.5 ± 3.2
129.99 K, x1 = 0.4716 | 618.7 ± 3.1
149.93 K, x1 = 0.5938 | 413.6 ± 7.2
149.96 K, x1 = 0.4151 | 527.4 ± 5.3
149.97 K, x1 = 0.1389 | 602.8 ± 3.5
149.97 K, x1 = 0.3339 | 555.8 ± 3.6
150 K, x1 = 0.5608 | 436 ± 7.2
150.01 K, x1 = 0.504 | 474.9 ± 6.6
159.36 K, x1 = 0.3238 | 492 ± 5.7
159.96 K, x1 = 0.4275 | 427.8 ± 4.7
159.98 K, x1 = 0.0224 | 577 ± 3.6
159.99 K, x1 = 0.2659 | 511 ± 3.7
160 K, x1 = 0.4156 | 432.5 ± 4.7
169.98 K, x1 = 0.2384 | 436.4 ± 6.9
169.99 K, x1 = 0.263 | 420.1 ± 8.7
170.01 K, x1 = 0.2279 | 442.9 ± 6.8
170.01 K, x1 = 0.3013 | 383.6 ± 9.7
179.98 K, x1 = 0.1281 | 390.8 ± 12
179.98 K, x1 = 0.1898 | 319 ± 12
